In US9630894B2, “Energy efficient method and apparatus for the extraction of biomolecules from dilute aqueous solution” (DYNASEP INC., priority 2012, dated 2017):

Experiments:
[1] = CCC extraction with DME of clarified fermentation broth from Clostridium acetobutylicum, GC and DNS assay; type: physicochemical
Procedure: This example describes three different runs of the CCC with fermentation broth from Clostridium acetobutylicum. […] The fermentation was intentionally interrupted prior to completion.
The extraction column operated at room temperature (˜25° C.) throughout the column. Periodic extract and raffinate samples were taken and analyzed for the constituents in the extract and raffinate discharges.
This example describes three different runs. In all cases, the mass of solvent to the mass of feed ratio (S/F) was 0.9. In all example the fermentation broth was first centrifuged to removal all cellular matter. Thus, the feed solution was clarified. In the case of the first run, the following components were measured via gas chromatograph (GC) analysis using external standard calibration. The external standard was run prior to analyzing the samples to provide individual calibration between peak area and the respective constituent under measure. […] Acetate was the conjugate base of acetic acid. Butyrate was the conjugate base of butyric acid. All components were quantified in the extract and raffinate. Since the extract and raffinate are mostly water and DME dissolves in water to approximately 20 wt. %, the samples were allowed to degas over a 24 hour period.
During the run, samples were taken of the extract and raffinate. In the case of the extract, the bulk DME was removed by reduction of pressure and addition of heat to flash the DME from the water and other solution constituents.
Extract and raffinate samples were collected at periodic intervals during the CCC testing. […] Glucose was measured via a DNS (3,5-dinitrosalicylic acid) assay.
In cases where the extract formed a two phase solution, the extract samples were diluted with distilled water to create a single phase and homogenous sample prior to GC. The dilution factor was then used to correct the GC measurements for concentrations prior to dilution.

[2] = Distribution coefficients of ABE mixtures between DME and aqueous phase in agitated pressure vessel, HPLC; type: physicochemical
Procedure: The compositions of the aqueous mixtures were based on concentrations typically produced in a cellulosic fermentation.
Mixtures were charged to a pressure vessel and agitated to provide adequate contacting between the aqueous and solvent (DME) phases. Heat tape was used to control the temperature of the liquid that was measured by thermocouples. Pressure and temperature measurements were taken every five minutes. After temperature and pressure stabilization agitation was ceased and the liquid phases were allowed to fully settle.
A mass balance was also performed on each component of the ABE and BE mixtures to determine a degree of accuracy of the results.

[3] = Run 3, Extract Bot, time 31 min
[4] = Run 3, Extract Bot, time 37 min
[5] = Run 3, Extract Top, time 31 min
[6] = Run 3, Extract Top, time 37 min

Which concentration in sample [1, 3] does the source give for CCO [Ethanol, ethanol] here?
The concentration in sample was 2290 µg/mL.

And the concentration in sample [1, 4]?
Its concentration in sample is 2590 µg/mL.

And the concentration in sample [1, 5]?
Its concentration in sample is 1980 µg/mL.

And the concentration in sample [1, 6]?
The concentration in sample was 2110 µg/mL.

And the concentration in sample ([1]; Run 3, Extract, time 22 min)?
The concentration in sample was 1130 µg/mL.

What about the concentration in sample ([1]; Run 3, Extract, time 27 min) of the same molecule?
Its concentration in sample is 1530 µg/mL.

And the concentration in sample ([1]; Run 3, Extract, time 43 min)?
The concentration in sample was 2110 µg/mL.

And the concentration in sample ([1]; Run 3, Extract, time 70 min)?
Its concentration in sample is 1850 µg/mL.

And the concentration in sample ([1]; Run 3, Extract, time 74 min)?
Its concentration in sample is 1710 µg/mL.

And the concentration in sample ([1]; Run 3, Extract, time 78 min)?
The concentration in sample was 1700 µg/mL.

And the concentration in sample ([1]; Run 3, Extract, time 82 min)?
Its concentration in sample is 1920 µg/mL.

And the concentration in sample ([1]; Run 3, Feed, time 0 min)?
The concentration in sample was 800 µg/mL.

And the concentration in sample ([1]; Run 3, Raffinate, time 22 min)?
The concentration in sample was 340 µg/mL.

And the concentration in sample ([1]; Run 3, Raffinate, time 27 min)?
Its concentration in sample is 400 µg/mL.

What about the concentration in sample ([1]; Run 3, Raffinate, time 31 min) of the same molecule?
Its concentration in sample is 420 µg/mL.

What about the concentration in sample ([1]; Run 3, Raffinate, time 37 min) of the same molecule?
The concentration in sample was 640 µg/mL.

And the concentration in sample ([1]; Run 3, Raffinate, time 43 min)?
Its concentration in sample is 890 µg/mL.

And the concentration in sample ([1]; Run 3, Raffinate, time 70 min)?
The concentration in sample was 1560 µg/mL.

And the concentration in sample ([1]; Run 3, Raffinate, time 74 min)?
The concentration in sample was 710 µg/mL.

And the concentration in sample ([1]; Run 3, Raffinate, time 78 min)?
The concentration in sample was 240 µg/mL.

And the concentration in sample ([1]; Run 3, Raffinate, time 82 min)?
Its concentration in sample is 1140 µg/mL.

With CC(=O)C(C)O (stereo not drawn) [Acetoin] as the molecule, how does the concentration in sample [1, 3] read?
Its concentration in sample is 1640 µg/mL.

What about the concentration in sample [1, 4] of the same molecule?
The concentration in sample was 1880 µg/mL.

What about the concentration in sample [1, 5] of the same molecule?
The concentration in sample was 910 µg/mL.

And the concentration in sample [1, 6]?
The concentration in sample was 1020 µg/mL.

What about the concentration in sample ([1]; Run 3, Extract, time 22 min) of the same molecule?
Its concentration in sample is 960 µg/mL.

And the concentration in sample ([1]; Run 3, Extract, time 27 min)?
The concentration in sample was 1000 µg/mL.

What about the concentration in sample ([1]; Run 3, Extract, time 43 min) of the same molecule?
The concentration in sample was 1830 µg/mL.

What about the concentration in sample ([1]; Run 3, Extract, time 70 min) of the same molecule?
Its concentration in sample is 1620 µg/mL.

And the concentration in sample ([1]; Run 3, Extract, time 74 min)?
Its concentration in sample is 1460 µg/mL.

What about the concentration in sample ([1]; Run 3, Extract, time 78 min) of the same molecule?
Its concentration in sample is 1600 µg/mL.

And the concentration in sample ([1]; Run 3, Extract, time 82 min)?
Its concentration in sample is 1650 µg/mL.

What about the concentration in sample ([1]; Run 3, Feed, time 0 min) of the same molecule?
Its concentration in sample is 330 µg/mL.

And the concentration in sample ([1]; Run 3, Raffinate, time 22 min)?
Its concentration in sample is 70 µg/mL.

What about the concentration in sample ([1]; Run 3, Raffinate, time 27 min) of the same molecule?
The concentration in sample was 0 µg/mL.

What about the concentration in sample ([1]; Run 3, Raffinate, time 31 min) of the same molecule?
Its concentration in sample is 0 µg/mL.

What about the concentration in sample ([1]; Run 3, Raffinate, time 37 min) of the same molecule?
The concentration in sample was 0 µg/mL.

What about the concentration in sample ([1]; Run 3, Raffinate, time 43 min) of the same molecule?
Its concentration in sample is 0 µg/mL.

What about the concentration in sample ([1]; Run 3, Raffinate, time 70 min) of the same molecule?
The concentration in sample was 0 µg/mL.

And the concentration in sample ([1]; Run 3, Raffinate, time 74 min)?
Its concentration in sample is 0 µg/mL.

And the concentration in sample ([1]; Run 3, Raffinate, time 78 min)?
The concentration in sample was 60 µg/mL.

What about the concentration in sample ([1]; Run 3, Raffinate, time 82 min) of the same molecule?
Its concentration in sample is 0 µg/mL.

Which distribution coefficients compared ([1]; Run 2, isobutanol versus butanol) does the source give for CC(C)CO [isobutanol, 2-methyl-1-propanol] here?
Its distribution coefficients compared is “approximately equal”.

What about the “Ratio of I/N (isobutanol/n-butanol)” value [1, 3] of the same molecule?
The value was 1.16.

What about the concentration in sample [1, 3] of the same molecule?
Its concentration in sample is 39300 µg/mL.

What about the “Ratio of I/N (isobutanol/n-butanol)” value [1, 4] of the same molecule?
The value was 1.15.

And the concentration in sample [1, 4]?
The concentration in sample was 39690 µg/mL.

And the “Ratio of I/N (isobutanol/n-butanol)” value [1, 5]?
The value was 1.04.

And the concentration in sample [1, 5]?
Its concentration in sample is 316670 µg/mL.

What about the “Ratio of I/N (isobutanol/n-butanol)” value [1, 6] of the same molecule?
Its value is 1.03.

And the concentration in sample [1, 6]?
Its concentration in sample is 328990 µg/mL.

And the “Ratio of I/N (isobutanol/n-butanol)” value ([1]; Run 3, Extract, time 22 min)?
Its value is 0.98.

And the concentration in sample ([1]; Run 3, Extract, time 22 min)?
Its concentration in sample is 18650 µg/mL.

And the “Ratio of I/N (isobutanol/n-butanol)” value ([1]; Run 3, Extract, time 27 min)?
Its value is 1.10.

And the concentration in sample ([1]; Run 3, Extract, time 27 min)?
The concentration in sample was 35800 µg/mL.

And the “Ratio of I/N (isobutanol/n-butanol)” value ([1]; Run 3, Extract, time 43 min)?
The value was 1.07.

What about the concentration in sample ([1]; Run 3, Extract, time 43 min) of the same molecule?
Its concentration in sample is 35340 µg/mL.

And the “Ratio of I/N (isobutanol/n-butanol)” value ([1]; Run 3, Extract, time 70 min)?
The value was 1.05.

And the concentration in sample ([1]; Run 3, Extract, time 70 min)?
Its concentration in sample is 30950 µg/mL.

What about the “Ratio of I/N (isobutanol/n-butanol)” value ([1]; Run 3, Extract, time 74 min) of the same molecule?
Its value is 1.02.

And the concentration in sample ([1]; Run 3, Extract, time 74 min)?
The concentration in sample was 31830 µg/mL.

And the “Ratio of I/N (isobutanol/n-butanol)” value ([1]; Run 3, Extract, time 78 min)?
Its value is 1.01.

What about the concentration in sample ([1]; Run 3, Extract, time 78 min) of the same molecule?
Its concentration in sample is 33190 µg/mL.

What about the “Ratio of I/N (isobutanol/n-butanol)” value ([1]; Run 3, Extract, time 82 min) of the same molecule?
The value was 1.02.

What about the concentration in sample ([1]; Run 3, Extract, time 82 min) of the same molecule?
The concentration in sample was 37480 µg/mL.

What about the “Ratio of I/N (isobutanol/n-butanol)” value ([1]; Run 3, Feed, time 0 min) of the same molecule?
Its value is 1.24.

And the concentration in sample ([1]; Run 3, Feed, time 0 min)?
The concentration in sample was 11650 µg/mL.

And the “Ratio of I/N (isobutanol/n-butanol)” value ([1]; Run 3, Raffinate, time 22 min)?
The value was 1.34.

And the concentration in sample ([1]; Run 3, Raffinate, time 22 min)?
The concentration in sample was 2720 µg/mL.

What about the “Ratio of I/N (isobutanol/n-butanol)” value ([1]; Run 3, Raffinate, time 27 min) of the same molecule?
Its value is 1.22.

What about the concentration in sample ([1]; Run 3, Raffinate, time 27 min) of the same molecule?
The concentration in sample was 380 µg/mL.

And the “Ratio of I/N (isobutanol/n-butanol)” value ([1]; Run 3, Raffinate, time 31 min)?
Its value is 1.28.

What about the concentration in sample ([1]; Run 3, Raffinate, time 31 min) of the same molecule?
Its concentration in sample is 380 µg/mL.

And the “Ratio of I/N (isobutanol/n-butanol)” value ([1]; Run 3, Raffinate, time 37 min)?
The value was 1.29.

What about the concentration in sample ([1]; Run 3, Raffinate, time 37 min) of the same molecule?
The concentration in sample was 230 µg/mL.

What about the “Ratio of I/N (isobutanol/n-butanol)” value ([1]; Run 3, Raffinate, time 43 min) of the same molecule?
Its value is 1.42.

And the concentration in sample ([1]; Run 3, Raffinate, time 43 min)?
Its concentration in sample is 230 µg/mL.

What about the “Ratio of I/N (isobutanol/n-butanol)” value ([1]; Run 3, Raffinate, time 70 min) of the same molecule?
The value was 1.37.

What about the concentration in sample ([1]; Run 3, Raffinate, time 70 min) of the same molecule?
Its concentration in sample is 430 µg/mL.

What about the “Ratio of I/N (isobutanol/n-butanol)” value ([1]; Run 3, Raffinate, time 74 min) of the same molecule?
Its value is 1.45.

What about the concentration in sample ([1]; Run 3, Raffinate, time 74 min) of the same molecule?
The concentration in sample was 480 µg/mL.

And the “Ratio of I/N (isobutanol/n-butanol)” value ([1]; Run 3, Raffinate, time 78 min)?
Its value is 1.41.

What about the concentration in sample ([1]; Run 3, Raffinate, time 78 min) of the same molecule?
The concentration in sample was 480 µg/mL.

What about the “Ratio of I/N (isobutanol/n-butanol)” value ([1]; Run 3, Raffinate, time 82 min) of the same molecule?
Its value is 1.44.

And the concentration in sample ([1]; Run 3, Raffinate, time 82 min)?
The concentration in sample was 480 µg/mL.

What does the source list for O [Water, water]?
DC ([2]; test ABE1, […] C., 104 psig): 0.15; DC ([2]; test ABE2, 38.3 ° C., 102 psig): 0.14; DC ([2]; test ABE3, 38.3 ° C., 103 psig): 0.13; DC ([2]; test ABE4, 38.0 ° C., 103 psig): 0.14; DC ([2]; test B1, […] C., 78 psig): 0.15; DC ([2]; test B2, 28.2 ° C., 83 psig): 0.11; DC ([2]; test B3, […] C., 86 psig): 0.11; DC ([2]; test BE1, 30.1 ° C., 85 psig): 0.13; DC ([2]; test BE2, 38.9 ° C., 107 psig): 0.13; DC ([2]; test BE3, 37.6 ° C., 103 psig): 0.12; DC ([2]; test BE3, 38.4 ° C., 106 psig): 0.12
